Laboratory results from patent publication US20260345603A1, “PRMT5 INHIBITORS” (Beijing Earthwise Technology Co., Ltd., priority 2022, published 2026).

Each compound was assayed on HCT116^MTAP Deletion cells (assay: Anti-proliferation assay on cells (CTG, 10 days), HCT116 MTAP Deletion). Details: Homo sapiens, HCT-116, 240 h, anti-proliferative activity, HCT116 MTAP Deletion, 10 days, class symbols; read-out: HCT116^MTAP Deletion GI50.
Assay type: cell-based
Procedure: HCT116^MTAD Deletion cells were from Pharmaron (China); HCT116 cells were from ATCC; McCoy's 5A medium was purchased from Invitrogen (USA); penicillin-streptomycin and fetal bovine serum were purchased from Gibco (USA); a 384-well plate was purchased from PerkinElmer (USA); and Cell-Titer Glo reagent was purchased from Promega (USA).
Compound dissolution: All the compounds were dissolved in dimethyl sulfoxide (DMSO) and then stored. The compounds were stored at room temperature in a dry condition for 3 months for short term storage or at −20 °C for long term storage.
The cells were cultured strictly in accordance with ATCC requirements. The cell culture medium (McCoy's 5A medium+10% fetal bovine serum+1% penicillin+streptomycin) was transferred to a 15 mL centrifuge tube and centrifuged at 1000 rpm for 5 min. The supernatant was removed. The cells were resuspended with complete culture medium, inoculated into a culture dish at the required density, and cultured in an incubator at 37 °C, 95% humid air, and 5% carbon dioxide. The culture medium was replenished or the cells were passaged every 2-3 days depending on the cell growth condition.
When the confluency of cells in the culture dish reached about 90%, the cells were washed twice with PBS, and then treated with trypsin to become single cells. The cells were counted, and 40 μl of the cells was inoculated into each well of a 384-well plate (50 cells/well). The plate was equilibrated at 37 °C and 5% carbon dioxide for 10 to 15 minutes. The compounds were injected into the 384-well plate using Echo550, and positive control and negative control (0.1% DMSO) were set up. Each compound was subjected to a 3-fold dilution, resulting in 10 concentration gradients, in duplicate, and the content of DMSO was 0.1%. The 384-well plate was incubated in a cell culture incubator for 10 days.
Then, 40 μl of cell proliferation assay reagent (CTG) was added to the 384-well plate, and the plate was shaken to mix well. Then, the 384-well plate was incubated at 37 °C and 5% carbon dioxide in the dark for 30 minutes. The data were read using the Envision multifunctional microplate reader. […] According to the different drug concentrations and their corresponding inhibition rates, the GI50 curve was drawn using GraphPad 8.0 software. The data were analyzed, and the final GI50 value was obtained.

| Compound | GI50 [nM] |
| --- | --- |
| CN(C(=O)C(=O)Nc1cnc(N)c2c1cnn2C)C1COc2nc(C(F)(F)F)ccc21 (stereo not drawn) [Example 159] | 100 to 1000 |
| Cc1cc(N)ncc1NC(=O)C(=O)N(Cc1ccc(C(F)(F)F)cn1)[C@H](C)c1ncccn1 [Example 26] | 100 to 1000 |
| CCc1cc(NC(=O)C(=O)N(Cc2ccc(C(F)(F)F)cn2)[C@H](C)c2ncccn2)cnc1N [Example 21] | 100 to 1000 |
| C[C@H](c1ncccn1)N(Cc1ccc(C(F)(F)F)cn1)C(=O)C(=O)Nc1cnc(N)c(F)c1 [Example 22] | 1000 to 10000 |
| CN(C(=O)C(=O)Nc1cnc(N)c2c1cnn2C)C1COc2cc(-c3cnn(C4CC4)c3)ccc21 (stereo not drawn) [Example 211] | ≤ 10 |
| C[C@H](C1CC1)N(Cc1ccc(C(F)(F)F)cn1)C(=O)C(=O)Nc1cnc(N)c2c1COC2 [Example 39] | 100 to 1000 |
| C[C@H](c1ncccn1)N(Cc1ccc(C(F)(F)F)cn1)C(=O)C(=O)Nc1cnc(N)c2cncn12 [Example 38] | > 10000 |
| CN(C(=O)C(=O)Nc1cnc(N)c2c1cnn2C)C1COc2cc(Cl)c(Cl)cc21 (racemic) [Compound 186] | ≤ 10 |
| Cn1ncc2c(NC(=O)C(=O)N(Cc3ccc(C(F)(F)F)cn3)CC3CCC3)cnc(N)c21 [Example 4] | 10 to 100 |
| Cc1cc(NC(=O)C(=O)N(C)C2COCc3cc(C4=CCOCC4)ccc32)cnc1N (racemic) [Compound 162] | 100 to 1000 |
| CCC(C)N(Cc1cnn(C)c1)C(=O)C(=O)Nc1cnc(N)c(C)c1 (stereo not drawn) [Example 73] | > 10000 |
| C[C@H](c1ncccn1)N(Cc1ccc(C(F)(F)F)cn1)C(=O)C(=O)Nc1cnc(N)c2ccncc12 [Example 32] | 100 to 1000 |
| Cc1cc(NC(=O)C(=O)N(Cc2ccc(C(F)(F)F)cn2)c2cnn(C)c2)cnc1N [Example 18] | 100 to 1000 |
| [2H]C([2H])([2H])N(C(=O)C(=O)Nc1cnc(N)c2c1cnn2C)C1COCc2cc(C(F)(F)F)ccc21 (stereo not drawn) [Example 109] | ≤ 10 |
| Cc1cc(/C=C/C(=O)N(Cc2ccc(C(F)(F)F)cn2)[C@H](C)c2ncccn2)cnc1N [Example 6] | > 10000 |
| CCOc1ccc(CN(C(=O)C(=O)Nc2cnc(N)c(C)c2)[C@H](C)c2ncccn2)nn1 [Example 35] | 10 to 100 |
| CN(C(=O)C(=O)Nc1cnc(N)c2c1cnn2C)C1COCc2cc(-c3ccnn3C)ccc21 (racemic) [Compound 156] | ≤ 10 |
| CN(C(=O)C(=O)Nc1cnc(N)c2c1cnn2C)C1COCc2cc(-c3cnn(C4CC4)c3)ccc21 (racemic) [Compound 223] | ≤ 10 |
| Cc1cc(NC(=O)C(=O)N(Cc2ccc(C3=CCOCC3)nn2)[C@H](C)c2ncccn2)cnc1N [Example 42] | 100 to 1000 |
| COC[C@H](C)N(Cc1ccc(C(F)(F)F)cn1)C(=O)C(=O)Nc1cnc(N)c(C)c1 [Example 9] | 10 to 100 |
| Cc1ncc(-c2ccc3c(c2)COCC3N(C)C(=O)C(=O)Nc2cnc(N)c3c2cnn3C)s1 (racemic) [Compound 181] | ≤ 10 |

| Compound | GI50 [nM] |
| --- | --- |
| CCC(C)N(Cc1ccc(C(F)(F)F)cn1)C(=O)C(=O)Nc1cnc(N)c2c1cnn2C (racemic) [Example 46-P1] | 10 to 100 |
| Cc1ncc(-c2ccc3c(n2)COCC3N(C)C(=O)C(=O)Nc2cnc(N)c3c2cnn3C)s1 (racemic) [Compound 209] | ≤ 10 |
| Cc1cc(NC(=O)C(=O)N(Cc2ccc(C(F)(F)F)cn2)CC2CCCC2)cnc1N [Example 17] | 10 to 100 |
| Cc1cc(NC(=O)C(=O)N(Cc2ccc(C(F)(F)F)cn2)C2CCCC2)cnc1N [Example 11] | 100 to 1000 |
| CN(C(=O)C(=O)Nc1cnc(N)c2c1cnn2C)C1COc2cc(Br)ccc21 (racemic) [Compound 180] | ≤ 10 |
| CCC(C)N(Cc1ccc(C(F)(F)F)cn1)C(=O)C(=O)Nc1cnc(N)c2c1cnn2C (stereo not drawn) [Example 46-P2] | 10 to 100 |
| CN1CC=C(c2ccc3c(c2)COCC3N(C)C(=O)C(=O)Nc2cnc(N)c3c2cnn3C)CC1 (stereo not drawn) [Example 160] | 10 to 100 |
| CN(C(=O)C(=O)Nc1cnc(N)c2c1cnn2C)C1COCc2cc(-c3cnn(C(F)(F)F)c3)ccc21 (racemic) [Compound 231] | ≤ 10 |
| Cc1ccc2c(c1)OCC2N(C)C(=O)C(=O)Nc1cnc(N)c2c1cnn2C (stereo not drawn) [Example 233] | 10 to 100 |
| COc1ncc(NC(=O)C(=O)N(Cc2ccc(C(F)(F)F)cn2)[C@H](C)c2ncccn2)cc1C(N)=O [Example 25] | 10 to 100 |
| CCC(C)N(Cc1ccc(C(F)(F)F)cn1)C(=O)C(=O)Nc1cnc(N)c(C)c1 (stereo not drawn) [Example 8] | 10 to 100 |
| Cc1cc(C2CC2C(=O)N(Cc2ccc(C(F)(F)F)cn2)[C@H](C)c2ncccn2)cnc1N (stereo partly drawn) [Example 7] | > 10000 |
| CN(C(=O)C(=O)Nc1cnc(N)c2c1cnn2C)C1COCc2cc(-c3cnn(C)c3)ccc21 (stereo not drawn) [Example 99] | ≤ 10 |
| CN(C(=O)C(=O)Nc1cnc(N)c2c1cnn2C)C1COc2cc(-c3ccnn3C)ccc21 (stereo not drawn) [Example 161] | ≤ 10 |
| C[C@H](c1ncccn1)N(Cc1ccc(C(F)(F)F)cn1)C(=O)C(=O)Nc1cnc(N)c(Cl)c1 [Example 23] | 1000 to 10000 |
| CN(C(=O)C(=O)Nc1cnc(N)c2c1cnn2C)C1COc2cc(-c3cnc(C4CC4)s3)ccc21 (stereo not drawn) [Example 236] | ≤ 10 |
| CCC(C)N(Cc1ccc(OCC(F)(F)F)nn1)C(=O)C(=O)Nc1cnc(N)c(C)c1 (stereo not drawn) [Example 63] | 100 to 1000 |
| Cc1cc(NC(=O)C(=O)N(Cc2ccc(C(F)(F)F)cn2)CC2CCC2)cnc1N [Example 16] | 10 to 100 |
| CN(C(=O)C(=O)Nc1cnc(N)c2c1cnn2C)C1COCc2cc(C3=CCC(F)(F)CC3)ccc21 (stereo not drawn) [Example 157] | ≤ 10 |
| CN(C(=O)C(=O)Nc1cnc(N)c2c1cnn2C)C1COCc2cc(Br)ccc21 (stereo not drawn) [Example 94] | ≤ 10 |
| C[C@H](c1ncccn1)N(Cc1ccc(C(F)(F)F)cn1)C(=O)C(=O)Nc1cnc(N)c2c1COC2 [Example 2] | 10 to 100 |

| Compound | GI50 [nM] |
| --- | --- |
| C[C@H](c1ncccn1)N(Cc1ccc(C(F)(F)F)cn1)C(=O)C(=O)Nc1cnc(N)c2c1CCCC2 [Example 31] | 100 to 1000 |
| CN(C(=O)C(=O)Nc1cnc(N)c2c1cnn2C)C1COc2cc(-c3cnn(C(F)(F)F)c3)ccc21 (stereo not drawn) [Example 213] | ≤ 10 |
| Cc1cc(NC(=O)C(=O)N(Cc2ccc(C(F)(F)F)cn2)CC(C)C)cnc1N [Example 37] | 10 to 100 |
| [2H]C([2H])([2H])n1ncc2c(NC(=O)C(=O)N(C)C3COc4cc(C(F)(F)F)ccc43)cnc(N)c21 (stereo not drawn) [Example 173] | 10 to 100 |
| Nc1ncc(NC(=O)C(=O)N(Cc2ccc(C(F)(F)F)cn2)CC2CC2)c2c1COC2 [Example 40] | 100 to 1000 |
| Cn1ncc2c(NC(=O)C(=O)N(Cc3ccc(C(F)(F)F)cn3)CC3CC3)cnc(N)c21 [Example 43] | ≤ 10 |
| CN(C(=O)C(=O)Nc1cnc(N)c2c1cnn2C)C1COCc2cc(-c3ccnn3C3CC3)ccc21 (racemic) [Compound 241] | ≤ 10 |
| Cc1cc(NC(=O)C(=O)N(Cc2ccc(C(F)(F)F)cn2)C2CCC2)cnc1N [Example 13] | 100 to 1000 |
| C[C@H](c1ncccn1)N(Cc1ccc(C(F)(F)F)cn1)C(=O)C(=O)Nc1cnc(N)c2c1cnn2C [Example 30] | 10 to 100 |
| CCC(C)N(Cc1ccc(C(F)(F)F)cn1)C(=O)C(=O)Nc1cnc(OC)c(C(N)=O)c1 (single isomer, unassigned) [Example 5-P1] | 10 to 100 |
| CN(C(=O)C(=O)Nc1cnc(N)c2c1cnn2C)C1COc2cc(-c3ccnn3C3CC3)ccc21 (stereo not drawn) [Example 212] | ≤ 10 |
| CN(C(=O)C(=O)Nc1cnc(N)c2c1cnn2C)C1COCc2cc(-c3ccnn3C)ccc21 (stereo not drawn) [Example 137] | ≤ 10 |
| Nc1ncc(NC(=O)C(=O)N(Cc2ccc(C(F)(F)F)cn2)CC2CCC2)c2c1COC2 [Example 41] | 100 to 1000 |
| CN(C(=O)C(=O)Nc1cnc(N)c2c1cnn2C)C1COCc2c1ccc(Cl)c2Cl (racemic) [Compound 168] | ≤ 10 |
| C[C@H](c1ncccn1)N(Cc1ccc(C(F)(F)F)cn1)C(=O)C(=O)Nc1cnc(N)c(Br)c1 [Example 24] | 100 to 1000 |
| CN(C(=O)C(=O)Nc1cnc(N)c2c1cnn2C)C1COCc2c(F)cc(Cl)cc21 (racemic) [Compound 155] | 10 to 100 |
| Cc1cc(NC(=O)C(=O)N(Cc2ccc(C(F)(F)F)cn2)C2CCCOC2)cnc1N (single isomer, unassigned) [Example 14-P1] | 100 to 1000 |
| CCC(C)N(Cc1ccc(C(F)(F)F)cn1)C(=O)C(=O)Nc1cnc(N)c2c1COC2C (stereo not drawn) [Example 10] | 10 to 100 |
| Cc1cc(NC(=O)C(=O)N(C)Cc2ccc(C(F)(F)F)cn2)cnc1N [Example 3] | 1000 to 10000 |

Same assay, conditions: anti-proliferative activity, HCT116 MTAP Deletion, 10 days, class symbols; read-out: HCT116^MTAP Deletion GI50

| Compound | GI50 [nM] |
| --- | --- |
| CN(C(=O)C(=O)Nc1cnc(N)c2c1cnn2C)C1COCc2cc(-c3cnn(C)c3)ccc21 (stereo not drawn) [Example 124-P1] | ≤ 10 |
| CCC(C)N(Cc1ccc(C(F)(F)F)cn1)C(=O)C(=O)Nc1cnc(N)c2c1cnn2C (stereo not drawn) [Example 52] | ≤ 10 |
